This passage reports IC50 results from patent US20260297081A1, “COMPOUNDS AND METHODS OF TREATING CANCERS” (Cullgen Inc., priority 2023, published 2026).

The test system of one test is MCF7 cells. Put plainly: Anti-proliferation (viability) of MCF7 cells (Table 7, FIG. 2B). The class given is cell-based. Particulars: Homo sapiens, MCF7, MCF7 cells, 3-6 days, 10-point serial dilution; read-out: GI IC50 in MCF-7.
For another test, the system named is Calu-1 cells. Put plainly: Anti-proliferation (viability) of NSCLC Calu-1 cells, 3 days (Table 7, FIG. 2B). It is filed as cell-based. The note with it: Homo sapiens, 72 h; Calu-1 cells, 3 days, 10-point serial dilution; read-out: GI IC50 in Calu-1. The procedure, abridged:
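Cells treated with heterobifunctional compounds in 10-point serial dilution, then viability measured; Calu-1 NSCLC cells exposed for 3 days, ER+ T47D breast cancer cells for 6 days.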

pIC50: −log10 of the molar value.

For `CC(=O)c1c(C)c2cnc(Nc3ccc(N4CC5(CN(CC(=O)NCC6CC(Nc7nc(NC(C)C)ccc7C(=O)Nc7ccc(N(C)C)nn7)C6)C5)C4)cn3)nc2n(C2CCCC2)c1=O` (centres unmarked) [CPD-468, 2-((3-((2-(6-(6-((6-acetyl-8-cyclopentyl-5-methyl-7-oxo-7,8-dihydropyrido[2,3-d]pyrimidin-2-yl)amino)pyridin-3-yl)-2,6-diazaspiro[3.3]heptan-2-yl)acetamido)methyl)cyclobutyl)amino)-N-(6-(dimethylamino)pyridazin-3-yl)-6-(isopropylamino)nicotinamide], the pIC50 in the test on MCF7 cells was below 7.00; in the test with Calu-1 cells, 7.30 to 8.00.

On to `CC(=O)c1c(C)c2cnc(Nc3ccc(N4CCN(C5CCN(C(=O)NC6CC7(C6)CC(Nc6nc(NC(C)C)ccc6C(=O)Nc6ccc(N(C)C)nn6)C7)C5)CC4)cn3)nc2n(C2CCCC2)c1=O` (centres unmarked) [CPD-470, 2-((6-(3-(4-(6-((6-acetyl-8-cyclopentyl-5-methyl-7-oxo-7,8-dihydropyrido[2,3-d]pyrimidin-2-yl)amino)pyridin-3-yl)piperazin-1-yl)pyrrolidine-1-carboxamido)spiro[3.3]heptan-2-yl)amino)-N-(6-(dimethylamino)pyridazin-3-yl)-6-(isopropylamino)nicotinamide], for which the pIC50 in the test with MCF7 cells was below 7.00; in the test on Calu-1 cells, at least 8.00.

Regarding `[2H]C([2H])([2H])Nc1ccc(C(=O)Nc2ccc(N(C)C)nn2)c(NC2CC(C(=O)N3CCC(N4CCN(c5ccc(Nc6ncc7c(C)c(C(C)=O)c(=O)n(C8CCCC8)c7n6)nc5)CC4)C3)C2)n1` (centres unmarked) [CPD-471, 2-((3-(3-(4-(6-((6-acetyl-8-cyclopentyl-5-methyl-7-oxo-7,8-dihydropyrido[2,3-d]pyrimidin-2-yl)amino)pyridin-3-yl)piperazin-1-yl)pyrrolidine-1-carbonyl)cyclobutyl)amino)-N-(6-(dimethylamino)pyridazin-3-yl)-6-((methyl-d3)amino)nicotinamide], the negative logarithm of the IC50 (pIC50) in the test on MCF7 cells was above 7.30; in the test on Calu-1 cells, at least 8.00.

Regarding `[2H]C([2H])([2H])Nc1ccc(C(=O)Nc2ccc(N(C)C)nn2)c(NC2CCN(C(=O)CN3CCN(Cc4ccc(Nc5ncc6c(C)c(C(C)=O)c(=O)n(C7CCCC7)c6n5)nc4)CC3)CC2)n1` [CPD-474, 2-((1-(2-(4-((6-((6-acetyl-8-cyclopentyl-5-methyl-7-oxo-7,8-dihydropyrido[2,3-d]pyrimidin-2-yl)amino)pyridin-3-yl)methyl)piperazin-1-yl)acetyl)piperidin-4-yl)amino)-N-(6-(dimethylamino)pyridazin-3-yl)-6-((methyl-d3)amino)nicotinamide], the figures for the pIC50 with MCF7 cells and in the test on Calu-1 cells were 7.00 to 7.30 and at least 8.00, respectively.

Turning to `CC(=O)c1c(C)c2cnc(Nc3ccc(CN4CCN(CC(=O)NC5CC(Nc6nc(NC(C)C)ccc6C(=O)Nc6ccc(N(C)C)nn6)C5)CC4)cn3)nc2n(C2CCCC2)c1=O` (centres unmarked) [CPD-475, 2-((3-(2-(4-((6-((6-acetyl-8-cyclopentyl-5-methyl-7-oxo-7,8-dihydropyrido[2,3-d]pyrimidin-2-yl)amino)pyridin-3-yl)methyl)piperazin-1-yl)acetamido)cyclobutyl)amino)-N-(6-(dimethylamino)pyridazin-3-yl)-6-(isopropylamino)nicotinamide], the pIC50 in the test on MCF7 cells is below 7.00; in the test on Calu-1 cells, at least 8.00.

For `[2H]C([2H])([2H])Nc1ccc(C(=O)Nc2ccc(N(C)C)nn2)c(N[C@H]2CC[C@H](C(=O)N3CCC(N4CCN(c5ccc(Nc6ncc7c(C)c(C(C)=O)c(=O)n(C8CCCC8)c7n6)nc5)CC4)C3)CC2)n1` (stereo partly drawn) [CPD-476, 2-((trans-4-(3-(4-(6-((6-acetyl-8-cyclopentyl-5-methyl-7-oxo-7,8-dihydropyrido[2,3-d]pyrimidin-2-yl)amino)pyridin-3-yl)piperazin-1-yl)pyrrolidine-1-carbonyl)cyclohexyl)amino)-N-(6-(dimethylamino)pyridazin-3-yl)-6-((methyl-d3)amino)nicotinamide], the figures for the pIC50 in the test on MCF7 cells and in the test with Calu-1 cells were above 7.30 and at least 8.00, respectively.

In the case of `[2H]C([2H])([2H])Nc1ccc(C(=O)Nc2cc(C)n(C)n2)c(N[C@H]2CC[C@H](C(=O)N3CCC(N4CCN(c5ccc(Nc6ncc7c(C)c(C(C)=O)c(=O)n(C8CCCC8)c7n6)nc5)CC4)C3)CC2)n1` (some centres unmarked) [CPD-477, 2-((4-(3-(4-(6-((6-acetyl-8-cyclopentyl-5-methyl-7-oxo-7,8-dihydropyrido[2,3-d]pyrimidin-2-yl)amino)pyridin-3-yl)piperazin-1-yl)pyrrolidine-1-carbonyl)cyclohexyl)amino)-N-(1,5-dimethyl-1H-pyrazol-3-yl)-6-((methyl-d3)amino)nicotinamide], the pIC50 in the test with MCF7 cells was below 7.00; with Calu-1 cells, 7.30 to 8.00.

Take `[2H]C([2H])([2H])Nc1ccc(C(=O)Nc2ccc(N(C)C)nn2)c(NC2CCN(C(=O)N3CCC(N4CCN(c5ccc(Nc6ncc7c(C)c(C(C)=O)c(=O)n(C8CCCC8)c7n6)nc5)CC4)C3)CC2)n1` (centres unmarked) [CPD-482, 2-((1-(3-(4-(6-((6-acetyl-8-cyclopentyl-5-methyl-7-oxo-7,8-dihydropyrido[2,3-d]pyrimidin-2-yl)amino)pyridin-3-yl)piperazin-1-yl)pyrrolidine-1-carbonyl)piperidin-4-yl)amino)-N-(6-(dimethylamino)pyridazin-3-yl)-6-((methyl-d3)amino)nicotinamide]: the pIC50 with MCF7 cells is above 7.30; in the test on Calu-1 cells it was at least 8.00.

Turning to `CC(=O)c1c(C)c2cnc(Nc3ccc(CN4CCC(NC(=O)C5CC6(CC(Nc7nc(NC(C)C)ccc7C(=O)Nc7ccc(N(C)C)nn7)C6)C5)CC4)cn3)nc2n(C2CCCC2)c1=O` (centres unmarked) [CPD-486, 2-((6-((1-((6-((6-acetyl-8-cyclopentyl-5-methyl-7-oxo-7,8-dihydropyrido[2,3-d]pyrimidin-2-yl)amino)pyridin-3-yl)methyl)piperidin-4-yl)carbamoyl)spiro[3.3]heptan-2-yl)amino)-N-(6-(dimethylamino)pyridazin-3-yl)-6-(isopropylamino)nicotinamide], the pIC50 in the test on MCF7 cells was above 7.30; with Calu-1 cells it was at least 8.00.

Turning to `[2H]C([2H])([2H])Nc1ccc(C(=O)Nc2ccc(N(C)C)nn2)c(NC2CC3(C2)CN(C(=O)CN2CCN(C(C)c4ccc(Nc5ncc6c(C)c(C(C)=O)c(=O)n(C7CCCC7)c6n5)nc4)CC2)C3)n1` (centres unmarked) [CPD-488, 2-((2-(2-(4-(1-(6-((6-acetyl-8-cyclopentyl-5-methyl-7-oxo-7,8-dihydropyrido[2,3-d]pyrimidin-2-yl)amino)pyridin-3-yl)ethyl)piperazin-1-yl)acetyl)-2-azaspiro[3.3]heptan-6-yl)amino)-N-(6-(dimethylamino)pyridazin-3-yl)-6-((methyl-d3)amino)nicotinamide], the pIC50 was above 7.30 in the test on MCF7 cells and at least 8.00 with Calu-1 cells.

In the case of `CC(=O)c1c(C)c2cnc(Nc3ccc(N4CCN(C(C)CC(=O)NC56CC(Nc7nc(NC(C)C)ccc7C(=O)Nc7ccc(N(C)C)nn7)(C5)C6)CC4)cn3)nc2n(C2CCCC2)c1=O` (centres unmarked) [CPD-504, 2-((3-(3-(4-(6-((6-acetyl-8-cyclopentyl-5-methyl-7-oxo-7,8-dihydropyrido[2,3-d]pyrimidin-2-yl)amino)pyridin-3-yl)piperazin-1-yl)butanamido)bicyclo[1.1.1]pentan-1-yl)amino)-N-(6-(dimethylamino)pyridazin-3-yl)-6-(isopropylamino)nicotinamide], the pIC50 with MCF7 cells is above 7.30; in the test with Calu-1 cells it was at least 8.00.

As to `CCc1ccc(C(=O)Nc2ccc(N(C)C)nn2)c(N[C@H]2CC[C@H](C(=O)N3CCC(N4CCN(c5ccc(Nc6ncc7c(C)c(C(C)=O)c(=O)n(C8CCCC8)c7n6)nc5)CC4)C3)CC2)c1` (stereo partly drawn) [CPD-526, 2-((trans-4-(3-(4-(6-((6-acetyl-8-cyclopentyl-5-methyl-7-oxo-7,8-dihydropyrido[2,3-d]pyrimidin-2-yl)amino)pyridin-3-yl)piperazin-1-yl)pyrrolidine-1-carbonyl)cyclohexyl)amino)-N-(6-(dimethylamino)pyridazin-3-yl)-4-ethylbenzamide], the pIC50 is above 7.30 in the test with MCF7 cells and at least 8.00 with Calu-1 cells.

Take `CC(=O)c1c(C)c2cnc(Nc3ccc(N4CCN(C5CCN(C(=O)[C@H]6CC[C@H](Nc7cc(C(C)C)ccc7C(=O)Nc7ccc(N(C)C)nn7)CC6)C5)CC4)cn3)nc2n(C2CCCC2)c1=O` (stereo partly drawn) [CPD-528, 2-((trans-4-(3-(4-(6-((6-acetyl-8-cyclopentyl-5-methyl-7-oxo-7,8-dihydropyrido[2,3-d]pyrimidin-2-yl)amino)pyridin-3-yl)piperazin-1-yl)pyrrolidine-1-carbonyl)cyclohexyl)amino)-N-(6-(dimethylamino)pyridazin-3-yl)-4-isopropylbenzamide]: the pIC50 was above 7.30 in the test with MCF7 cells and at least 8.00 in the test on Calu-1 cells.

Turning to `CC(=O)c1c(C)c2cnc(Nc3ccc(CN4CCN(CC(=O)N5CCC(Nc6nc(NC(C)C)ccc6C(=O)Nc6cc7n(n6)CCC7)CC5)CC4)cn3)nc2n(C2CCCC2)c1=O` [CPD-530, 2-((1-(2-(4-((6-((6-acetyl-8-cyclopentyl-5-methyl-7-oxo-7,8-dihydropyrido[2,3-d]pyrimidin-2-yl)amino)pyridin-3-yl)methyl)piperazin-1-yl)acetyl)piperidin-4-yl)amino)-N-(5,6-dihydro-4H-pyrrolo[1,2-b]pyrazol-2-yl)-6-(isopropylamino)nicotinamide], the pIC50 in the test on MCF7 cells was below 7.00; in the test on Calu-1 cells, 7.30 to 8.00.

As for `COc1cccc(NC(=O)c2ccc(NC(C)C)nc2NC2CCN(C(=O)CN3CCN(Cc4ccc(Nc5ncc6c(C)c(C(C)=O)c(=O)n(C7CCCC7)c6n5)nc4)CC3)CC2)n1` [CPD-533], the pIC50 in the test with MCF7 cells is 7.00 to 7.30; in the test with Calu-1 cells it was at least 8.00.

Regarding `CC(=O)c1c(C)c2cnc(Nc3ccc(N4CCN(C5CCN(C(=O)C67CC(Nc8nc(NC(C)C)ccc8C(=O)Nc8ccc(N(C)C)nn8)(C6)C7)C5)CC4)cn3)nc2n(C2CCCC2)c1=O` (centres unmarked) [CPD-534, 2-((3-(3-(4-(6-((6-acetyl-8-cyclopentyl-5-methyl-7-oxo-7,8-dihydropyrido[2,3-d]pyrimidin-2-yl)amino)pyridin-3-yl)piperazin-1-yl)pyrrolidine-1-carbonyl)bicyclo[1.1.1]pentan-1-yl)amino)-N-(6-(dimethylamino)pyridazin-3-yl)-6-(isopropylamino)nicotinamide], the values for the pIC50 in the test with MCF7 cells and in the test on Calu-1 cells were above 7.30 and at least 8.00, respectively.

Usually pIC50 stands for the negative decadic logarithm of the IC50, by convention in mol/L.
